Read-outs that look alike come from different tables or passages of the source. Values belong to the molecule of their own block, whether it stands above or below them.
Columns and labels:
[1] = target: T1, PK-C α (Homo sapiens, UniProt P17252); test: displacement of bound [3H-20]-phorbol-12,13-dibutyrate (PDBU) from single recombinant isozyme PK-C α; assay type: binding; details: for Ki: PK-C α
T1 construct: made in house
Protocol: This recombinant PK-C α was expressed in baculovirus and isolated as described by Kazanietz et al. (Mol. Pharmacol. 44: 298-307 (1993)).
The affinity of these ligands for PK-C was assessed in terms of their ability to displace bound [^3 H-20]-phorbol-12,13-dibutyrate (PDBU) from a purified product containing the single isozyme PK-C α.

[2] = tested on: mouse skin tumor promotion; details: in vivo; cited from earlier work
[3] = stability to racemization / acyl migration; assay type: physicochemical; details: silica or neutral alumina
[4] = tested on: binding of epidermal growth factor; test: inhibition of binding of epidermal growth factor in intact cells; assay type: cell-based; details: read-out: ED50, inhibition of binding of epidermal growth factor
Protocol: (§1) The biological activity of compound 3.8 was evaluated further. […] Finally, the ability of compound 3.8 to down-regulate PK-C α and PK-C δ in primary mouse keratinocytes after 24 hours was examined.

[5] = target: T1, PK-C α; test: stimulation of phosphorylation of the α-pseudosubstrate peptide (activation of PK-C α); assay type: biochemical; details: read-out: ED50, stimulation of phosphorylation of the α-pseudosubstrate peptide
[6] = tested on: PK-Cε; test: down-regulation of PK-Cε in primary mouse keratinocytes; assay type: cell-based; details: after 24 hours
[7] = tested on: CD-1 mouse skin; test: induction of acute edema or hyperplasia in CD-1 mouse skin; assay type: in vivo; details: 10-100 μg
[8] = tested on: PK-C.eta.; test: down-regulation of PK-C.eta. in primary mouse keratinocytes; assay type: cell-based; details: after 24 hours
[9] = target: T2, PK-C α (Mus musculus, UniProt P20444); test: down-regulation of PK-C α in primary mouse keratinocytes; assay type: cell-based; details: even after 24 h
T2 construct: in primary mouse keratinocytes; endogenous in cells; host or cells: primary mouse keratinocytes
Protocol: as §1

[10] = tested on: melanoma; details: in vivo; cited from earlier work
[11] = Table II, racemic and chiral compounds, read-out: Apparent Ki for ligands as inhibitors of PDBU binding to PK-C
[12] = read-out: Ki, displacement of bound PDBU
[13] = Table I, read-out: Apparent Ki for ligands as inhibitors of PDBU binding to PK-C
[14] = Table IV, read-out: Apparent Ki for chiral ligands having an α-alkylidene chain as inhibitors of PDBU binding to PK-C

SMILES: CCCCCCCCCCCCCC(=O)OCC1(CO)CCC(=O)O1 (stereo not shown)
Ki [1, 11]: 138 ± 24 nM

SMILES: CCCCCCCCCCCCCC(=O)OCC1(CO)CCC(=O)O1 (racemic) [Compound 3e, 5-[(tetradecanoyloxy)methyl]-5-hydroxymethyl-tetrahydro-2-furanone]
Ki [1, 12]: 138 nM

SMILES: CC(=O)OC12CC(C)C3(O)C(C=C(CO)CC4(O)C(=O)C(C)=CC43)C1C2(C)C (stereo not shown) [12-deoxyphorbol-13-acetate]
inhibition of mouse skin tumor promotion [2]: 97%

SMILES: CCCCCCCCCCCCCC(=O)OC[C@]1(CO)CCC(=O)O1 [Compound 2.2, (R)-5-[(tetradecanoyloxy)methyl]-5-(hydroxymethyl)-tetrahydro-2-furanone]
racemization on exposure to chromatographic conditions [3]: rapid racemization
Ki [1, 12]: 96 nM

SMILES: CCCCCCCCCCCCCC(=O)OCC1(CO)COC(=O)C1 (stereo not shown) [Compound 9c, 4-Hydroxymethyl-4-(tetradecanoyloxy)methyl-4-vinyltetrahydro-2-furanone]
Ki [1, 13]: 9810 nM

SMILES: CCCCCCCCCCCCCCC1CC(CO)(COC(C)=O)OC1=O (stereo not shown) [Compound 12, 5-(acetyloxymethyl)-5-(hydroxymethyl)-3-(tetradecanyl)-tetrahydro-2-furanone]
Ki [1, 13]: 75 ± 2.54 nM

SMILES: CCCCCCCCCCCCC/C=C1\C(=O)OCC1(CO)COC(C)=O (stereo not shown) [Compound 14c, (Z)-4-[(acetoxy)methyl]-4-hydroxymethyl-3-(tetradecanylidene)-tetrahydro-2-furanone]
Ki [1, 13]: 6510 nM

SMILES: CCCC=CC=CC(=O)OC1C(=CC(=O)OC)CC2CC(C(C)O)OC(=O)CC(O)CC3CC(OC(C)=O)C(C)(C)C(O)(CC4CC(=CC(=O)OC)CC(C=CC(C)(C)C1(O)O2)O4)O3 (stereo not shown) [bryostatin-1]
results in clinical trials for treatment of melanoma [10]: promising results

SMILES: CCCCCCCCCCCCCC(=O)OC[C@]1(CO)CCC(=O)O1 [drawing 16]
Ki [1, 11]: 96 ± 2.17 nM

More lines, main results first:

binding affinity compared with the corresponding α-alkylidenes 3.9 and 3.10 ([1]; Table IV): equivalent
SMILES: CCCCCCCC/C=C\CCCCCCC/C=C1\C[C@](/C=C/C(=O)OC)(CO)OC1=O [Compound 3.7, (S)-5-Hydroxymethyl-5-[2-(methoxycarbonyl)ethenyl]-3-{(E)-[(Z)-9-octadecenoylidene]}tetrahydro-2-furanone]

EC50 [5]: 163 ± 16.7 nM
binding affinity compared with the corresponding α-alkylidenes 3.9 and 3.10 ([1]; Table IV): equivalent
induction of acute edema ([7]; 6 h): did not induce acute edema
loss in activity [9]: No loss in activity was observed
SMILES: CCCCCCCC/C=C\CCCCCCC/C=C1/C[C@](/C=C/C(=O)OC)(CO)OC1=O [Compound 3.8, (S)-5-Hydroxymethyl-5-[2-(methoxycarbonyl)ethenyl]-3-{(Z)-[(Z)-9-octadecenoylidene]}tetrahydro-2-furanone]
IC50 [4]: 1000 nM
down-regulation of PK-Cε [6]: did not down-regulate
induction of hyperplasia ([7]; 72 h): did not induce acute edema (10-100 μg, 6 h) or hyperplasia
down-regulation of PK-C.eta. [8]: did not down-regulate

Ki [1, 13]: 96 ± 7.45 nM
SMILES: CCCCCCCC/C=C\CCCCCCCC(=O)OCC1(CO)CCC(=O)O1 (stereo not shown) [Compound 3f, 5-{[(Z)-9-octadecenoyloxy]methyl}-5-hydroxymethyl-tetrahydro-2-furanone]

Ki [1, 14]: 20.1 ± 2.9 nM
SMILES: CCCCCCCC/C=C\CCCCCCC/C=C1\C[C@](/C=C/C(=O)OC)(CO)OC1=O [drawing 35]

Ki [1, 14]: 11.3 ± 0.72 nM
SMILES: CCCCCCCC/C=C\CCCCCCC/C=C1/C[C@](/C=C/C(=O)OC)(CO)OC1=O [drawing 36]

Source: US5874464A, “Conformationally constrained diacylglycerol analogues” (The United States of America as represented by the …, priority 1995, dated 1999)
